This passage reports EC50 and inhibition of growth results from ChEMBL document CHEMBL3045692, “Effectiveness of cyproconazole to control Armillaria root rot of apple, walnut and kiwifruit” (Crop Prot, 2012).

Molecules are shown by their SMILES. Values after ≈ are worked out from the molar mass of the structure shown.

Broadly, the EC50 is the concentration giving half of the maximal effect.

Assay [1] has as its system Armillaria mellea. In words: Fungicidal activity against Armillaria mellea infected walnut assessed as mycelial growth inhibition at Caddy 10WP formulation at 25 degC measured every week for 1 month. Type of assay: functional, organism-based.
Assay [2] concerns Armillaria mellea. In words: Fungicidal activity against Armillaria mellea infected kiwifruit assessed as mycelial growth inhibition at 20 mg/l formulated as Caddy 10WP at 25 degC measured every week for 1 month (reference value: 0%). Type of assay: functional. As to conditions: read-out: GI.
Assay [3] deals with Armillaria mellea. In words: Fungicidal activity against Armillaria mellea infected walnut assessed as mycelial growth inhibition at 30 mg/l formulated as Caddy 10WP at 25 degC measured every week for 1 month (reference value: 0%). Type of assay: functional. As to conditions: read-out: GI.
Assay [4] concerns Armillaria mellea. In words: Fungicidal activity against Armillaria mellea infected walnut assessed as mycelial growth inhibition at 5 mg/l formulated as Caddy 10WP at 25 degC measured every week for 1 month (reference value: 0%). Conditions: read-out: GI. Type of assay: functional.
Assay [5] has as its system Armillaria mellea. In words: Fungicidal activity against Armillaria mellea infected apple assessed as mycelial growth inhibition at 15 mg/l formulated as Caddy 10WP at 25 degC measured every week for 1 month (reference value: 0%). Conditions: read-out: GI. Type of assay: functional.
Assay [6] deals with Armillaria mellea. In words: Fungicidal activity against Armillaria mellea infected kiwifruit assessed as mycelial growth inhibition at 25 mg/l formulated as Caddy 10WP at 25 degC measured every week for 1 month (reference value: 0%). Type of assay: functional. Conditions: read-out: GI.
The subject of assay [7] is Armillaria mellea. In words: Fungicidal activity against Armillaria mellea infected kiwifruit assessed as mycelial growth inhibition at 30 mg/l formulated as Caddy 10WP at 25 degC measured every week for 1 month (reference value: 0%). Type of assay: functional. As to conditions: read-out: GI.
Assay [8] relates to Armillaria mellea. In words: Fungicidal activity against Armillaria mellea infected kiwifruit assessed as mycelial growth inhibition at 10 mg/l formulated as Caddy 10WP at 25 degC measured every week for 1 month (reference value: 0%). Type of assay: functional. Conditions: read-out: GI.
Assay [9] concerns Armillaria mellea. In words: Fungicidal activity against Armillaria mellea infected apple assessed as mycelial growth inhibition at 5 mg/l formulated as Caddy 10WP at 25 degC measured every week for 1 month (reference value: 0%). Type of assay: functional. Conditions: read-out: GI.
Assay [10] has as its system Armillaria mellea. In words: Fungicidal activity against Armillaria mellea infected walnut assessed as mycelial growth inhibition at 25 mg/l formulated as Caddy 10WP at 25 degC measured every week for 1 month (reference value: 0%). Type of assay: functional. As to conditions: read-out: GI.
Assay [11] concerns Armillaria mellea. In words: Fungicidal activity against Armillaria mellea infected apple assessed as mycelial growth inhibition at 25 mg/l formulated as Caddy 10WP at 25 degC measured every week for 1 month (reference value: 0%). As to conditions: read-out: GI. Type of assay: functional.
In assay [12] the test system is Armillaria mellea. In words: Fungicidal activity against Armillaria mellea infected walnut assessed as mycelial growth inhibition at 10 mg/l formulated as Caddy 10WP at 25 degC measured every week for 1 month (reference value: 0%). Type of assay: functional. As to conditions: read-out: GI.
Assay [13] concerns Armillaria mellea. In words: Fungicidal activity against Armillaria mellea infected kiwifruit assessed as mycelial growth inhibition at 15 mg/l formulated as Caddy 10WP at 25 degC measured every week for 1 month (reference value: 0%). Type of assay: functional. As to conditions: read-out: GI.
Assay [14] relates to Armillaria mellea. In words: Fungicidal activity against Armillaria mellea infected apple assessed as mycelial growth inhibition at 30 mg/l formulated as Caddy 10WP at 25 degC measured every week for 1 month (reference value: 0%). Type of assay: functional. As to conditions: read-out: GI.
Assay [15] concerns Armillaria mellea. In words: Fungicidal activity against Armillaria mellea infected kiwifruit assessed as mycelial growth inhibition at 5 mg/l formulated as Caddy 10WP at 25 degC measured every week for 1 month (reference value: 0%). As to conditions: read-out: GI. Type of assay: functional.
Assay [16] relates to Armillaria mellea. In words: Fungicidal activity against Armillaria mellea infected apple assessed as mycelial growth inhibition at 10 mg/l formulated as Caddy 10WP at 25 degC measured every week for 1 month (reference value: 0%). As to conditions: read-out: GI. Type of assay: functional.
For assay [17], the system named is Armillaria mellea. In words: Fungicidal activity against Armillaria mellea infected walnut assessed as mycelial growth inhibition at 20 mg/l formulated as Caddy 10WP at 25 degC measured every week for 1 month (reference value: 0%). Type of assay: functional. Conditions: read-out: GI.
The subject of assay [18] is Armillaria mellea. In words: Fungicidal activity against Armillaria mellea infected apple assessed as mycelial growth inhibition at Caddy 10WP formulation at 25 degC measured every week for 1 month. Type of assay: functional, organism-based.
Assay [19] has as its system Armillaria mellea. In words: Fungicidal activity against Armillaria mellea infected apple assessed as mycelial growth inhibition at 20 mg/l formulated as Caddy 10WP at 25 degC measured every week for 1 month (reference value: 0%). Type of assay: functional. Conditions: read-out: GI.
Assay [20] has as its system Armillaria mellea. In words: Fungicidal activity against Armillaria mellea infected kiwifruit assessed as mycelial growth inhibition at Caddy 10WP formulation at 25 degC measured every week for 1 month. Type of assay: functional, organism-based.
In assay [21] the test system is Armillaria mellea. In words: Fungicidal activity against Armillaria mellea infected walnut assessed as mycelial growth inhibition at 15 mg/l formulated as Caddy 10WP at 25 degC measured every week for 1 month (reference value: 0%). Type of assay: functional. Conditions: read-out: GI.

Regarding `CC(C1CC1)C(O)(Cn1cncn1)c1ccc(Cl)cc1` (stereo unspecified) [CYPROCONAZOLE], the concentration for a half-maximal effect (EC50) with Armillaria mellea [1] turned out to be 6.73 µg/mL (≈ 23.1 µM); with Armillaria mellea [18] it was 5.19 µg/mL (≈ 17.8 µM); with Armillaria mellea [20], 5.72 µg/mL (≈ 19.6 µM). The inhibition of growth at 20 µg/mL in the assay with Armillaria mellea [2], in the assay on Armillaria mellea [17] and in the assay on Armillaria mellea [19] was 100% throughout. The inhibition of growth at 30 µg/mL in the assay on Armillaria mellea [3], in the assay with Armillaria mellea [7] and in the assay on Armillaria mellea [14] was 100% throughout. Besides, the inhibition of growth at 5 µg/mL in the assay on Armillaria mellea [4] came out at 41%; in the assay on Armillaria mellea [9], 56%; with Armillaria mellea [15], 47%. In addition, the inhibition of growth at 15 µg/mL in the assay on Armillaria mellea [5] is 98%; in the assay with Armillaria mellea [13] it was 100%; in the assay with Armillaria mellea [21] it was 95%. The inhibition of growth at 25 µg/mL in the assay with Armillaria mellea [6], with Armillaria mellea [10] and in the assay with Armillaria mellea [11] was 100% throughout. For the same compound, the inhibition of growth at 10 µg/mL came out at 86% in the assay with Armillaria mellea [8], 73% with Armillaria mellea [12] and 89% with Armillaria mellea [16].
